Among the data in ChEMBL document CHEMBL1126504, “Synthesis of pyrrolidine oxazoles as thromboxane A2/endoperoxide receptor antagonists” (Bioorg Med Chem Lett, 1993) are IC50 and Kd values, retold here.

For one test, the species on record is Homo sapiens. Kind of test: Inhibition of arachidonic acid-induced and ADP-induced platelet aggregation of human platelet rich plasma. The test is classed as functional. The settings on record: read-out: I50.
The next test deals with T1, Thromboxane A2 receptor (Homo sapiens, UniProt P21731).
T1 sequence (P21731 whole entry): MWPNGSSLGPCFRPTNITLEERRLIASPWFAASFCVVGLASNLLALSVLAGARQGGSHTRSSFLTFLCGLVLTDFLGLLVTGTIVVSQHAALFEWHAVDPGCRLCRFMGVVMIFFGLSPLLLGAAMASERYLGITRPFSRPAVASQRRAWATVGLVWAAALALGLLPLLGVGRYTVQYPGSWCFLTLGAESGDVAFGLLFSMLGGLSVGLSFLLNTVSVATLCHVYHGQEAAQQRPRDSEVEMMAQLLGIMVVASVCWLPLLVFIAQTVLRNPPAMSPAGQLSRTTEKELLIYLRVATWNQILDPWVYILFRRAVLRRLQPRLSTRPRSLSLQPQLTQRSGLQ
The test is described as follows: Binding affinity was determined for Thromboxane A2 receptor in human platelet membrane in presence of [3H]-SQ-29,548 radioligand. The format is cell membranes.

Molecules are shown by their SMILES.

On to `O=C(O)CCc1ccccc1CN1C(=O)CCC1c1nc(C(=O)NCCCCC2CCCCC2)co1` (stereo not drawn), for which the IC50 in the test listed under Homo sapiens (Homo sapiens, Plasma) stood at 23000 nM. Consider `O=C(O)CCc1ccccc1CN1CCCC1c1nc(C(=O)NCCCCC2CCCCC2)co1` (stereo not drawn), for which the dissociation constant (Kd) (commonly the equilibrium constant for the complex coming apart) at Thromboxane A2 receptor was found to be 11 nM.

Take `O=C(O)CCc1ccccc1C(=O)N1[C@@H](O)CC[C@H]1c1nc(C(=O)NCCc2ccc(Cl)cc2)co1`: in the test filed under Homo sapiens (Homo sapiens, Plasma), the IC50 is 3700 nM. Still for that read-out and setting: with `O=C(O)CCc1ccccc1CN1CCC[C@@H]1c1nc(C(=O)NCCCCC2CCCCC2)co1` the figure was 1700 nM; with `O=C(O)CCc1ccccc1C(=O)N1CCC[C@H]1c1nc(C(=O)NCCCCC2CCCCC2)co1`, 19 nM. `O=C(O)CCc1ccccc1C(=O)N1c2ccccc2CC1c1nc(C(=O)NCCc2ccc(Cl)cc2)co1` (single isomer, unassigned; (+)): the IC50 in the test listed under Homo sapiens was 250 nM. Take `O=C(O)CCc1ccccc1CN1CCC[C@H]1c1nc(C(=O)NCCCCC2CCCCC2)co1`: in the test listed under Homo sapiens (Homo sapiens, Plasma), the IC50 came out at 19 nM. For `O=C(O)CCc1ccccc1C(=O)N1c2ccccc2CC1c1nc(C(=O)NCCc2ccc(Cl)cc2)co1` (single isomer, unassigned; (-)), the IC50 in the test listed under Homo sapiens was 3700 nM.
